Experimental data reported in US11279733B2, “Peptide antibiotics” (priority 2017, dated 2022).
≈ marks a conversion by molar mass, not a printed value. Read-outs that look alike come from different tables or passages of the source. Positions of bridges follow the written chain, without caps; N, C: chain ends. Non-standard residues stand in square brackets, D forms with d. Residues, ends and D or L forms follow the SMILES beside them. *: point of attachment. dPhe(4-NO2) = N[C@H](Cc1ccc([N+](=O)[O-])cc1)C(=O)O; Benzoyl(4-OPh) = O=C(c1ccc(Oc2ccccc2)cc1)*; Decanoyl(3R-OH) = CCCCCCC[C@@H](O)CC(=O)*; X3 = CCCCCCCCCCCC(O)CC(=O)*; dDab = NCC[C@@H](N)C(=O)O; dDap = NC[C@@H](N)C(=O)O; Dab = NCC[C@H](N)C(=O)O; Dap = NC[C@H](N)C(=O)O

Assays:
[1] = test system: K. pneumoniae GN_102 PmxR; details: GN 102 PmxR
Description: (§1) Bacteria were either obtained from American Type Culture Collection (ATCC; Manassas, Va., USA) or independent academic clinical isolate collections, as listed in Table 18 below. Bacteria were cultured in Nutrient broth (NB; Bacto Laboratories, catalogue No. 234000) or Mueller Hinton broth (MHB; Bacto Laboratories, catalogue No. 211443) at 37° C. overnight with shaking (˜180 RPM). A sample of each culture was then diluted 50-fold in fresh MHB and incubated at 37° C. for 2-3 h with shaking (˜180 RPM). Compound stock solutions were prepared as 0.64 mg/mL or 2.56 mg/mL in water. The compounds, at twice the final desired concentration, were serially diluted 2-fold across the wells of 96-well plates (Polystyrene, Corning, catalogue No. 3370). Mid-log phase bacterial cultures (after 2-3 h incubation) were diluted to a final concentration of 1×10^6 colony forming units (CFU)/mL, and 50 μL was added to each well giving a final cell density of 5×10^5 and a compound concentration range of 32 μg/mL to 0.015 μg/mL (128-0.06 μg/mL against P. aeruginosa PA9704).

[2] = test system: P. aeruginosa GN_043, PmxR; details: for MIC, P. aeruginosa FADDI-PA070, PmxR: Table 5
Description: as §1

[3] = test system: P. aeruginosa GN_105, PmxR; details: GN 105, PmxR
Description: as §1

[4] = test system: S. aureus ATCC 25923, MSSA; details: ATCC 25923
Description: as §1

K. pneumoniae ATCC 13883 = details: ATCC 13883
Description: as §1

[5] = test system: K. pneumoniae ATCC 700603, MDR; details: ATCC 700603
Description: as §1

A. baumannii ATCC 19606 = details: ATCC 19606
Description: as §1

P. aeruginosa ATCC 27853 = details: ATCC 27853
Description: as §1

[6] = test system: K. pneumoniae ATCC BAA-2146, NDM-1 pos; details: ATCC BAA-2146
Description: as §1

[7] = test system: K. pneumoniae GN_106, PmxR; details: GN 106, PmxR
Description: as §1

E. coli ATCC 25922 = details: ATCC 25922
Description: as §1

A. baumannii GN_093 PmxR = details: GN 093 PmxR
Description: as §1

SMILES	MIC K. pneumoniae GN_102 PmxR [1]	MIC P. aeruginosa GN_105, PmxR [3]	MIC, K. pneumoniae ATCC 13883 (K. pneumoniae ATCC 13883)	MIC, K. pneumoniae ATCC 700603, MDR [5]	MIC, A. baumannii ATCC 19606 (A. baumannii ATCC 19606)	MIC, P. aeruginosa ATCC 27853 (P. aeruginosa ATCC 27853)	MIC, K. pneumoniae ATCC BAA-2146, NDM-1 pos [6]	MIC K. pneumoniae GN_106, PmxR [7]	MIC, E. coli ATCC 25922 (E. coli ATCC 25922)	MIC A. baumannii GN_093 PmxR (A. baumannii GN_093 PmxR)	MIC S. aureus ATCC 25923, MSSA [4]	MIC K. pneumoniae ATCC 13883 (K. pneumoniae ATCC 13883)	MIC K. pneumoniae ATCC 700603, MDR [5]	MIC A. baumannii ATCC 19606 (A. baumannii ATCC 19606)	MIC P. aeruginosa ATCC 27853 (P. aeruginosa ATCC 27853)	MIC K. pneumoniae ATCC BAA-2146, NDM-1 pos [6]	MIC E. coli ATCC 25922 (E. coli ATCC 25922)	MIC P. aeruginosa GN_043, PmxR ([2]; P. aeruginosa GN_043, PmxR)	further results
CCCCCCC[C@@H](O)CC(=O)N[C@H](CC(N)=O)C(=O)N[C@H]1CCNC(=O)[C@H](CC(C)C)NC(=O)[C@H](CCN)NC(=O)[C@H](CCN)NC(=O)[C@H](CC(C)C)NC(=O)[C@@H](Cc2ccccc2)NC(=O)[C@H](CCN)NC1=O [compound 6447, 3(R)OH-nC9CO-D-Asn-cyc[L-Dab-L-Dab-D-Phe-L-Leu-L-Dab-L-Dab-L-Leu]] ({Decanoyl(3R-OH)}-[dN][Dab][Dab][dF]L[Dab][Dab]L; lactam 2-C)	4 µg/mL (≈ 3.78 µM)	4 µg/mL (≈ 3.78 µM)	4 µg/mL (≈ 3.78 µM)	8 µg/mL (≈ 7.56 µM)	16 µg/mL (≈ 15.1 µM)	8 µg/mL (≈ 7.56 µM)	8 µg/mL (≈ 7.56 µM)	4 µg/mL (≈ 3.78 µM)	4 µg/mL (≈ 3.78 µM)	8 µg/mL (≈ 7.56 µM)									MIC P. aeruginosa GN_043, PmxR ([2]; Table 6, polymyxin-resistant): 8 µg/mL (≈ 7.56 µM); MIC, S. aureus ATCC 25923, MSSA [4]: 32 µg/mL (≈ 30.2 µM)
CCCCCCCCCCCC(O)CC(=O)N[C@H](CCN)C(=O)N[C@H]1CCNC(=O)[C@H](CC(C)C)NC(=O)[C@H](CCN)NC(=O)[C@H](CCN)NC(=O)[C@H](CC(C)C)NC(=O)[C@@H](Cc2ccccc2)NC(=O)[C@H](CCN)NC1=O (stereo partly drawn) [compound 5015, 3OH-nC13CO-D-Dab-cyc[L-Dab-L-Dab-D-Phe-L-Leu-L-Dab-L-Dab-L-Leu]] (X3-[dDab][Dab][Dab][dF]L[Dab][Dab]L; lactam 2-C)	8 µg/mL (≈ 7.27 µM)	4 µg/mL (≈ 3.63 µM)						4 µg/mL (≈ 3.63 µM)		8 µg/mL (≈ 7.27 µM)	4 µg/mL (≈ 3.63 µM)	4 µg/mL (≈ 3.63 µM)	8 µg/mL (≈ 7.27 µM)	4 µg/mL (≈ 3.63 µM)	4 µg/mL (≈ 3.63 µM)	8 µg/mL (≈ 7.27 µM)	4 µg/mL (≈ 3.63 µM)		MIC P. aeruginosa GN_043, PmxR [2]: 4 µg/mL (≈ 3.63 µM)
CCCCCCC[C@@H](O)CC(=O)N[C@H](CCN)C(=O)N[C@H]1CCNC(=O)[C@H](CC(C)C)NC(=O)[C@H](CCN)NC(=O)[C@H](CCN)NC(=O)[C@H](CC(C)C)NC(=O)[C@@H](Cc2ccccc2)NC(=O)[C@H](CN)NC1=O [compound 993, 3(R)OH-nC9CO-D-Dab-cyc[L-Dab-L-Dap-D-Phe-L-Leu-L-Dab-L-Dab-L-Leu]] ({Decanoyl(3R-OH)}-[dDab][Dab][Dap][dF]L[Dab][Dab]L; lactam 2-C)			4 µg/mL (≈ 3.88 µM)	4 µg/mL (≈ 3.88 µM)	8 µg/mL (≈ 7.76 µM)	2 µg/mL (≈ 1.94 µM)	8 µg/mL (≈ 7.76 µM)		2 µg/mL (≈ 1.94 µM)										MIC, K. pneumoniae Cl Koprana 10065 0661:1, PmxR [1]: 2 µg/mL (≈ 1.94 µM); MIC, P. aeruginosa FADDI-PA070, PmxR ([2]; polymyxin-resistant): 2 µg/mL (≈ 1.94 µM); MIC, P. aeruginosa PA9704, PmxR [3]: 2 µg/mL (≈ 1.94 µM); MIC, S. Aureus ATCC 25923, MSSA [4]: 8 µg/mL (≈ 7.76 µM); MIC, K. pneumoniae Cl 138-16347-20362, PmxR [7]: 2 µg/mL (≈ 1.94 µM); MIC, A. baumannii Cl Ptyela 10073 4512:2, PmxR (A. baumannii GN_093 PmxR): 16 µg/mL (≈ 15.5 µM)
CCCCCCC[C@@H](O)CC(=O)N[C@H](CN)C(=O)N[C@H]1CCNC(=O)[C@H](CC(C)C)NC(=O)[C@H](CCN)NC(=O)[C@H](CCN)NC(=O)[C@H](CC(C)C)NC(=O)[C@@H](CC(C)C)NC(=O)[C@H](CCN)NC1=O [compound 8977, nC10-3(R)OH-D-Dap-(L-Dab-L-Dab-D-Leu-L-Leu-L-Dab-L-Dab-L-Leu)] ({Decanoyl(3R-OH)}-[dDap][Dab][Dab][dL]L[Dab][Dab]L; lactam 2-C)	2 µg/mL (≈ 2.01 µM)	2 µg/mL (≈ 2.01 µM)						4 µg/mL (≈ 4.01 µM)		2 µg/mL (≈ 2.01 µM)	32 µg/mL (≈ 32.1 µM)	8 µg/mL (≈ 8.03 µM)	4 µg/mL (≈ 4.01 µM)	8 µg/mL (≈ 8.03 µM)	4 µg/mL (≈ 4.01 µM)	8 µg/mL (≈ 8.03 µM)	4 µg/mL (≈ 4.01 µM)	2 µg/mL (≈ 2.01 µM)	
CCCCCCC[C@@H](O)CC(=O)N[C@H](CCN)C(=O)N[C@H]1CCNC(=O)[C@H](CC(C)C)NC(=O)[C@H](CCN)NC(=O)[C@H](CCN)NC(=O)[C@H](Cc2ccccc2)NC(=O)[C@@H](Cc2ccccc2)NC(=O)[C@H](CCN)NC1=O [compound 5003, 3(R)OH-nC9CO-D-Dab-cyc[L-Dab-L-Dab-D-Phe-L-Phe-L-Dab-L-Dab-L-Leu]] ({Decanoyl(3R-OH)}-[dDab][Dab][Dab][dF]F[Dab][Dab]L; lactam 2-C)	4 µg/mL (≈ 3.71 µM)	2 µg/mL (≈ 1.85 µM)						4 µg/mL (≈ 3.71 µM)		8 µg/mL (≈ 7.42 µM)	8 µg/mL (≈ 7.42 µM)	4 µg/mL (≈ 3.71 µM)	16 µg/mL (≈ 14.8 µM)	16 µg/mL (≈ 14.8 µM)	2 µg/mL (≈ 1.85 µM)	16 µg/mL (≈ 14.8 µM)	8 µg/mL (≈ 7.42 µM)	2 µg/mL (≈ 1.85 µM)	
CCCCCCC[C@@H](O)CC(=O)N[C@H](CCN)C(=O)N[C@H]1CCNC(=O)[C@H](CC(C)C)NC(=O)[C@H](CCN)NC(=O)[C@H](CCN)NC(=O)[C@H](CC(C)C)NC(=O)[C@@H](Cc2ccccc2)NC(=O)[C@H](CCCNC(=N)N)NC1=O [compound 8634, 3(R)OH-nC9CO-D-Dab-cyc[L-Dab-L-Arg-D-Phe-L-Leu-L-Dab-L-Dab-L-Leu]] ({Decanoyl(3R-OH)}-[dDab][Dab]R[dF]L[Dab][Dab]L; lactam 2-C)			8 µg/mL (≈ 7.27 µM)	4 µg/mL (≈ 3.63 µM)	16 µg/mL (≈ 14.5 µM)	4 µg/mL (≈ 3.63 µM)	8 µg/mL (≈ 7.27 µM)		8 µg/mL (≈ 7.27 µM)										MIC, K. pneumoniae Cl Koprana 10065 0661:1, PmxR [1]: 4 µg/mL (≈ 3.63 µM); MIC, P. aeruginosa FADDI-PA070, PmxR ([2]; polymyxin-resistant): 2 µg/mL (≈ 1.82 µM); MIC, P. aeruginosa PA9704, PmxR [3]: 4 µg/mL (≈ 3.63 µM); MIC, S. Aureus ATCC 25923, MSSA [4]: 16 µg/mL (≈ 14.5 µM); MIC, K. pneumoniae Cl 138-16347-20362, PmxR [7]: 8 µg/mL (≈ 7.27 µM); MIC, A. baumannii Cl Ptyela 10073 4512:2, PmxR (A. baumannii GN_093 PmxR): 32 µg/mL (≈ 29.1 µM)
CC(C)C[C@@H]1NC(=O)[C@H](CCN)NC(=O)[C@H](CCN)NC(=O)[C@H](CC(C)C)NC(=O)[C@@H](Cc2ccccc2)NC(=O)[C@H](CCN)NC(=O)[C@@H](NC(=O)[C@@H](CCN)NC(=O)c2ccc(Oc3ccccc3)cc2)CCNC1=O [compound 6527, Ph-4-OPhCO-D-Dab-cyc[L-Dab-L-Dab-D-Phe-L-Leu-L-Dab-L-Dab-L-Leu]] ({Benzoyl(4-OPh)}-[dDab][Dab][Dab][dF]L[Dab][Dab]L; lactam 2-C)	32 µg/mL (≈ 29.9 µM)	4 µg/mL (≈ 3.74 µM)						>32 µg/mL		>32 µg/mL	>32 µg/mL	16 µg/mL (≈ 14.9 µM)	16 µg/mL (≈ 14.9 µM)	>32 µg/mL	2 µg/mL (≈ 1.87 µM)	16 µg/mL (≈ 14.9 µM)	2 µg/mL (≈ 1.87 µM)		MIC P. aeruginosa GN_043, PmxR [2]: 1 µg/mL (≈ 0.934 µM)
CCCCCCC[C@@H](O)CC(=O)N[C@H](Cc1ccc([N+](=O)[O-])cc1)C(=O)N[C@H]1CCNC(=O)[C@H](CC(C)C)NC(=O)[C@H](CCN)NC(=O)[C@H](CCN)NC(=O)[C@H](Cc2ccccc2)NC(=O)[C@@H](CC(C)C)NC(=O)[C@H](CCN)NC1=O [compound 6433, 3(R)OH-nC9CO-D-4NO2Phe-cyc[L-Dab-L-Dab-D-Leu-L-Phe-L-Dab-L-Dab-L-Leu]] ({Decanoyl(3R-OH)}-[dPhe(4-NO2)][Dab][Dab][dL]F[Dab][Dab]L; lactam 2-C)	4 µg/mL (≈ 3.52 µM)	8 µg/mL (≈ 7.04 µM)						4 µg/mL (≈ 3.52 µM)		16 µg/mL (≈ 14.1 µM)	8 µg/mL (≈ 7.04 µM)	8 µg/mL (≈ 7.04 µM)	8 µg/mL (≈ 7.04 µM)	8 µg/mL (≈ 7.04 µM)	8 µg/mL (≈ 7.04 µM)	8 µg/mL (≈ 7.04 µM)	8 µg/mL (≈ 7.04 µM)	4 µg/mL (≈ 3.52 µM)	
